Assay results from paper PMC6630718, “Discovery of Novel UV-Filters with Favorable Safety Profiles in the 5-Arylideneimidazolidine-2,4-dione Derivatives Group” (Molecules, 2019).

What was measured:
[1] = Ames MPF Penta 2 microplate mutagenicity assay, TA1535; details: Salmonella typhimurium, FIB (fold induction over baseline)
Procedure: (§1) The assay is a liquid microplate modification of the traditional Salmonella test. During the procedure, bacteria are exposed to different concentrations of a test compound for 90 min in a medium containing sufficient histidine (S. typhimurium) or tryptophan (E. coli) to support cell divisions. Then, the cultures are diluted in pH indicator medium lacking histidine or tryptophan and aliquoted into 48 wells of a 384-well plate. Within 48 hours, cells that have undergone reversion to amino acid prototrophy will grow into colonies. Bacterial metabolism reduces pH of the medium, changing the color of that well from purple to yellow (https://www.xenometrix.ch).
(§2) The following strains were used in the study: S. typhimurium TA98, TA100, TA1535, TA1537 and E. coli wp2 uvrA[pKM101]. TA100, TA1535 and E. coli strains are used for the detection of base substitution mutations, whereas TA98 and TA1537 are utilized for the detection of frameshift mutations. S. typhimurium strains have GC base pairs, whereas E. coli strain has AT base pair at their primary reversion site and detect certain oxidizing mutagens, cross-linking agents and hydrazines.
(§3) The test procedure provided by Xenometrix (https://www.xenometrix.ch) and described earlier was followed. Briefly, the bacterial strains were grown overnight in exposure medium and exposed to test compounds 4g and 3b in 24-well plates for 90 min at 37 °C with agitation in the absence (–S9) or presence (+S9) of 4.5% phenobarbital/ β-naphthoflavone-induced rat liver S9. Compounds 4g and 3b were dissolved in DMSO and tested at final concentrations of 0.1, 0.2 and 0.5 mM. After the preincubation, the cultures were diluted in the indicator medium and the contents of each 24-well culture were distributed into 48 wells on a 384-well plate and incubated further for 48 h at 37 °C without agitation. After the exposure, the number of wells containing bacteria was scored by eye for yellow wells. Positive and negative controls were included in the assay, and all doses were done in triplicate.
(§4) Pure DMSO was used as the negative control.
(§5) The fold increase of revertants relative to the solvent control was determined by dividing the mean number of positive wells at each dose by the solvent control at baseline. The solvent control at baseline was defined as the mean number of positive wells in the solvent control plus one standard deviation (SD). When an increase of more than 2-fold relative to the baseline at more than one dose with a dose–response is observed the sample is classified as positive, whereas when no response >2 times the baseline and no dose–response is stated the sample is negative.

[2] = Ames MPF Penta 2 microplate mutagenicity assay, TA98; format: cell-based; details: Salmonella typhimurium, read-out: FIB (fold induction over baseline)
Procedure: as §1, §2, §3, §4, §5

[3] = test system: Salmonella typhimurium and Escherichia coli strains; assay: Ames MPF Penta 2 mutagenicity assay, overall verdict over all strains; format: cell-based; details: in the absence and presence of metabolic activation
Excerpt: (§6) Growth, exposure and indicator media, liver S9 fraction, S9-NADP, S9-G-6-P, positive control chemicals as well as Salmonella typhimurium and Escherichia coli strains were included in the kit from Xenometrix. According to the obtained results, there were no doses of test compounds 3b and 4g with more than a 2-fold induction over the baseline, and a dose dependent response was not observed both in the absence and presence of metabolic activation (Table S3). Therefore, compounds 3b and 4g were clearly non-mutagenic in the absence and presence of metabolic activation.

[4] = as above; format: cell-based, Salmonella typhimurium, Escherichia coli; details: Salmonella typhimurium, Escherichia coli; 0.1, 0.2 and 0.5 mM, absence and presence of metabolic activation; read-out: fold induction over the baseline, any dose and strain
Excerpt: as §6

[5] = Ultraviolet spectroscopy in methanol solutions; format: physicochemical; details: for Absorption Range: scan range 290–400 nm
Outline: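 Spectra recorded from 290–400 nm in methanol (50 or 25 μM) in 1 cm quartz cuvettes. εmax taken as the slope of absorbance vs. concentration over 10–50 μM or 2.5–30 μM.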

[6] = In vitro photoprotection study of 2% (w/w) macrogol formulations on PMMA plates; details: for UVA PF / UVA/UVB Ratio / λc (critical wavelength): 2% (w/w) macrogol formulation F1 (Triacetin 4.8%); for SPFin vitro: 2% (w/w) macrogol formulation F1 (Tween 20, PEG-400, PEG-1500, Triacetin 4.8%)
Outline: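 Compounds at 2% in macrogol (PEG-400/PEG-1500) formulations, predissolved in triacetin:Tween 20 (1:9) or DMSO; 32.5 mg applied to 25 cm² PMMA plates (5 µm roughness), glycerin-treated plate as reference. Per EN ISO 24443:2012, modified: reflectance absorbance 290–400 nm in 1 nm steps, averaged over 12 scans.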

[7] = S. typhimurium TA98 without S9 (–S9), TA98, –S9, 0.1 mM
[8] = S. typhimurium TA98 without S9 (–S9), TA98, –S9, 0.2 mM
[9] = S. typhimurium TA98 without S9 (–S9), TA98, –S9, 0.5 mM

With `CCOC(=O)CN1C(=O)/C(=C/c2ccc(OC)cc2)N(CC(=O)OCC)C1=O` [Compound 3b, Diethyl 2,2′-((Z)-4-(4-methoxybenzylidene)-2,5-dioxoimidazolidine-1,3-diyl)diacetate] as the compound, how does the fold induction at 90 min, 0.1 mM ([1]; TA1535, +S9, 0.1 mM) read?
The fold induction at 90 min, 0.1 mM was 0.5.

And the fold induction at 90 min, 0.2 mM ([1]; TA1535, +S9, 0.2 mM)?
The fold induction at 90 min, 0.2 mM was 0.1.

And the fold induction at 90 min, 0.5 mM ([1]; TA1535, +S9, 0.5 mM)?
Its fold induction at 90 min, 0.5 mM is 0.1.

What about the fold induction at 90 min, 0.1 mM ([1]; TA1535, –S9, 0.1 mM) of the same compound?
Its fold induction at 90 min, 0.1 mM is 0.8.

What about the fold induction at 90 min, 0.2 mM ([1]; TA1535, –S9, 0.2 mM) of the same compound?
The fold induction at 90 min, 0.2 mM was 0.6.

And the fold induction at 90 min, 0.5 mM ([1]; TA1535, –S9, 0.5 mM)?
The fold induction at 90 min, 0.5 mM was 1.7.

And the fold induction at 90 min, 0.1 mM [2, 7]?
Its fold induction at 90 min, 0.1 mM is 0.9.

And the fold induction at 90 min, 0.2 mM [2, 8]?
Its fold induction at 90 min, 0.2 mM is 0.2.

And the fold induction at 90 min, 0.5 mM [2, 9]?
Its fold induction at 90 min, 0.5 mM is 0.9.

And the fold induction at 90 min, 0.1 mM ([2]; TA98, +S9, 0.1 mM)?
Its fold induction at 90 min, 0.1 mM is 0.2.

What about the fold induction at 90 min, 0.2 mM ([2]; TA98, +S9, 0.2 mM) of the same compound?
Its fold induction at 90 min, 0.2 mM is 0.4.

And the fold induction at 90 min, 0.5 mM ([2]; TA98, +S9, 0.5 mM)?
The fold induction at 90 min, 0.5 mM was 0.3.

And the “mutagenicity (verdict in words)” value [3]?
Its value is “non-mutagenic”.

And the fold induction at 90 min [4]?
The fold induction at 90 min was ≤ 2.

What about the εmax [5] of the same compound?
Its εmax is 16310 M⁻¹ cm⁻¹.

What about the λmax [5] of the same compound?
Its λmax is 318 nm.

And the “Absorption Range” value [5]?
Its value is 290–362 nm.

And the “UVA PF” value [6]?
The value was 2.59 ± 0.23.

What about the “UVA/UVB Ratio” value [6] of the same compound?
The value was 0.84 ± 0.08.

And the λc (critical wavelength) [6]?
Its λc (critical wavelength) is 366 nm.

And the SPFin vitro [6]?
Its SPFin vitro is 3.07 ± 0.04.

With `CCOC(=O)CN1C(=O)/C(=C/C=C/c2ccc(OC)cc2)N(CC(=O)OCC)C1=O` [Compound 4g, Diethyl 2,2′-((Z)-4-((E)-3-(4-methoxyphenyl)allylidene)-2,5-dioxoimidazolidine-1,3-diyl)diacetate] as the compound, how does the fold induction at 90 min, 0.1 mM ([1]; TA1535, +S9, 0.1 mM) read?
The fold induction at 90 min, 0.1 mM was 0.3.

What about the fold induction at 90 min, 0.2 mM ([1]; TA1535, +S9, 0.2 mM) of the same compound?
The fold induction at 90 min, 0.2 mM was 0.7.

And the fold induction at 90 min, 0.5 mM ([1]; TA1535, +S9, 0.5 mM)?
Its fold induction at 90 min, 0.5 mM is 0.3.

And the fold induction at 90 min, 0.1 mM ([1]; TA1535, –S9, 0.1 mM)?
The fold induction at 90 min, 0.1 mM was 0.3.

And the fold induction at 90 min, 0.2 mM ([1]; TA1535, –S9, 0.2 mM)?
Its fold induction at 90 min, 0.2 mM is 1.4.

What about the fold induction at 90 min, 0.5 mM ([1]; TA1535, –S9, 0.5 mM) of the same compound?
The fold induction at 90 min, 0.5 mM was 0.6.

And the fold induction at 90 min, 0.1 mM [2, 7]?
The fold induction at 90 min, 0.1 mM was 0.5.

And the fold induction at 90 min, 0.2 mM [2, 8]?
Its fold induction at 90 min, 0.2 mM is 0.9.

And the fold induction at 90 min, 0.5 mM [2, 9]?
The fold induction at 90 min, 0.5 mM was 0.2.

And the fold induction at 90 min, 0.1 mM ([2]; TA98, +S9, 0.1 mM)?
The fold induction at 90 min, 0.1 mM was 0.3.

And the fold induction at 90 min, 0.2 mM ([2]; TA98, +S9, 0.2 mM)?
The fold induction at 90 min, 0.2 mM was 0.4.

And the fold induction at 90 min, 0.5 mM ([2]; TA98, +S9, 0.5 mM)?
Its fold induction at 90 min, 0.5 mM is 0.6.

What about the “mutagenicity (verdict in words)” value [3] of the same compound?
Its value is “non-mutagenic”.

What about the fold induction at 90 min [4] of the same compound?
The fold induction at 90 min was ≤ 2.

What about the εmax [5] of the same compound?
The εmax was 54996 M⁻¹ cm⁻¹.

What about the λmax [5] of the same compound?
Its λmax is 379 nm.

What about the “Absorption Range” value [5] of the same compound?
Its value is 290–400 nm.

And the “UVA PF” value [6]?
Its value is 6.83 ± 0.05.

And the “UVA/UVB Ratio” value [6]?
Its value is 4.50 ± 0.32.

And the λc (critical wavelength) [6]?
Its λc (critical wavelength) is 391 nm.

What about the SPFin vitro [6] of the same compound?
The SPFin vitro was 1.68 ± 0.04.
